Laboratory results from patent publication US6911474B2, “Methods, compounds, and compositions for reducing body fat and modulating fatty acid metabolism” (The Regents of the University of California, priority 2001, dated 2005).

How the values were obtained:
[1] = Hot plate test, pain threshold; assay type: in vivo, rat; conditions: FIG. 4f
Procedure: (§1) Other behavioral assays. The elevated plus maze test was conducted as described (Navarro et al., Neuroreport, 8:491-496 (1997)) after the administration of vehicle or OEA (20 mg per kg, i.p.). Horizontal activity in an open field (Beltramo et al., J. Neurosci., 20:3401-3407 (2000)) and pain threshold in the hot plate test (55° C.) (Beltramo et al., Science, 277:1094-1097 (1997)) were measured 15 min after injection of vehicle or OEA (20 mg per kg). Rectal temperature was measured using a digital thermometer (Martin-Calderón et al., Eur. J. Pharmacol., 344:77-86. (1998)).

[2] = Circulating OEA level after i.p. administration (HPLC/MS); assay type: in vivo; conditions: rat, plasma, ip, 1 hr after 5 mg per kg, read-out: circulating OEA levels
Procedure: HPLC/MS analyses. Plasma was prepared from blood obtained by cardiac puncture (Giuffrida et al., Anal. Biochem., 280:87-93 (2000)) and CSF was collected from the cisterna magna using a 27G ½ needle (Precisionglide, USA). FAEs and NAPE were extracted from tissues with methanol/chloroform and fractionated by column chromatography (Giuffrida et al., “Lipid Second Messengers” (ed. Laychock, S. G. & Rubin, R. P.) 113-133 (CRC Press LLC, Boca Raton, Fla., 1998)). FAEs were quantified by HPLC/MS, using an isotope dilution method (Giuffrida et al., Anal. Biochem., 280:87-93 (2000)). Individual NAPE species were identified and quantified by HPLC/MS, using an external standard method (Calignano et al., Nature, 408:96-101 (2000)).
OEA elicits hypophagia at physiologically relevant doses. […] Thus, the concentrations reached by OEA in blood during starvation can be sufficient to elicit notable behavioral responses.

Adipocyte = assay: Lypolysis (glycerol release) in adipocytes; assay type: cell-based, rat
[3] = Elevated plus maze anxiety test; assay type: in vivo, rat; conditions: FIG. 4g
Procedure: as §1

[4] = Operant responses for food; assay type: in vivo, rat; conditions: at a dose substantially higher than those required to produce hypophagia; FIG. 4i
Excerpt: Operant responses for food. Rats were trained to lever press for food on a fixed ratio 1 (FR1) schedule of reinforcement, while food-restricted at 20 g of chow per rat per day (Rodriguez de Fonseca et al., Acta Pharmacol. Sin., 20:1109-1114 (1999)). Once stable responding was achieved, the animals were trained to acquire an FR5, time out 2-min schedule of food reinforcement and kept in limited access to food. When a stable baseline was obtained, the animals were used to test the effects of vehicle or OEA (1, 5 or 20 mg per kg) administered 15 min before lever presentation. Test duration was 60 min.

Astrocyte = assay: [14C]oleate oxidation to ketone bodies in astrocytes; assay type: cell-based, rat
Cardiomyocyte = assay: [14C]oleate oxidation to CO2 in cardiomyocytes; assay type: cell-based, rat
[5] = Acute food intake in 24-h food-deprived rats after i.p. administration; assay type: in vivo, rat
Procedure: (§2) Feeding experiments. Acute experiments. Food intake was measured in 24-h food-deprived rats (Navarro et al., J. Neurochem., 67:1982-1991 (1996)), administering drugs 15 min before food presentation. Subchronic experiments. Ad libitum fed rats received vehicle injections for three days. On day four, the animals were divided in two equal groups and gave them daily injections of vehicle or OEA (5 mg per kg at 1900 h) for 7 consecutive days, while measuring body weight, food intake and water intake.
The effects of systemically administered OEA on food intake in rats can be assessed using a 24 h fast. […] To define the selectivity of this response, various OEA analogs were evaluated for their ability to produce hypophagia.

Soleus muscle = assay: [14C]oleate oxidation to CO2 in soleus muscle; assay type: cell-based, rat
[6] = target: T1, cannabinoid receptors (rat brain membranes) (Rattus norvegicus, UniProt P20272); assay: Displacement of cannabinoid binding to rat brain membranes in vitro
T1 construct: from tissue; host or cells: rat brain membranes

[7] = Subchronic administration: food intake, body weight and water intake; assay type: in vivo, rat; conditions: 5 mg per kg, i.p., daily for seven days
Procedure: as §2
OEA was subchronically administered to rats.

[8] = Body (rectal) temperature; assay type: in vivo, rat; conditions: 5 or 20 mg per kg; FIG. 4e
Procedure: as §1

[9] = Plasma hormone levels by radioimmunoassay (HPA axis); assay type: in vivo, rat; conditions: Table 3
Procedure: Blood chemistry. Plasma β-hydroxybutyrate and glycerol were measured using commercial kits (Sigrna, St. Louis, Mo.). Plasma prolactin, corticosterone and luteinizing hormone were quantified by radioimmunoassay (Navarro et al., Neuroreport, 8:491-496 (1997)).

Open field activity test = assay type: in vivo, rat; conditions: at a dose substantially higher than those required to produce hypophagia; FIG. 4h
Procedure: as §1

c-fos mRNA = c-fos mRNA in situ hybridization in brain; assay type: in vivo, rat; conditions: 10 mg per kg, i.p., 60 min
Procedure: In situ hybridization. Rats were accustomed to the handling and injection procedure for five days. On day six, vehicle or drug OEA (10 mg per kg, i.p.), or oleic acid (10 mg per kg) was administered, and the rats killed 60 min later by decapitation under anesthesia. In situ hybridization analyses were conducted using ^35S-labeled cRNA probes for c-fos (Guthrie et al., Proc. Natl. Acad. Sci. U.S.A., 90:3329-3333 (1993)) and choline acetyl transferase (ChAT) (Lauterbom et al., Brain Res. Mol. Brain Res., 17:59-69 (1993)). Average hybridization densities were determined from at least three tissue sections per rat. Statistical significance was evaluated using one-way analysis of variance (ANOVA) followed by the Tukey-Kramer post-hoc test for paired comparisons.

T1 sequence (P20272 whole entry): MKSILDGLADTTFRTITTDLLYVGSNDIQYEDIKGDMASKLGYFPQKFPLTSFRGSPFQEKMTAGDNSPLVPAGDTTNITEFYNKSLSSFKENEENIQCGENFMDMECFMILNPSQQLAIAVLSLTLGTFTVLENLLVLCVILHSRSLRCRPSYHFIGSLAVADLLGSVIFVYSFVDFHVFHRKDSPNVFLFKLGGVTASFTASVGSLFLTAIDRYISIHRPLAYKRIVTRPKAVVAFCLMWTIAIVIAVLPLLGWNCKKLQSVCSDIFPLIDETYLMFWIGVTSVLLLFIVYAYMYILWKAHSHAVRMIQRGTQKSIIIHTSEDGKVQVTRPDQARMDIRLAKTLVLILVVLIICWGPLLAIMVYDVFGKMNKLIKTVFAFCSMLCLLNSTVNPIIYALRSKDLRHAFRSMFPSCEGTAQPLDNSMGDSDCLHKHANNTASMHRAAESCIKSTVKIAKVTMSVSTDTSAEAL

- pain threshold [1]: did not alter
- concentration at 1 hr [2]: 16.1 ± 2.6 nM
- anxiety-like symptoms [3]: did not produce anxiety-like symptoms
- displacement of cannabinoid binding [6]: did not displace
- body temperature [8]: did not alter
- activity of the hypothalamus-pituitary-adrenal (HPA) axis [9]: did not alter
- motor activity (Open field activity test): reduced
SMILES: CCCCCCCC/C=C\CCCCCCCC(=O)NCCO [OEA, Oleoylethanolamide]
- Stimulatory effect of 10 μM OEA (%) on lypolysis (glycerol release) (Adipocyte; Adipocyte, 10 μM, 30 min incubation): 38 ± 16%
- mobilization of triacylglycerol stores (Adipocyte; primary white adipose tissue cells): significant mobilization
- operant responses for food [4]: reduced
- Stimulatory effect of 10 μM OEA (%) on [14C]oleate oxidation to ketone bodies (Astrocyte; Astrocyte, 10 μM, 30 min incubation): 2 ± 6%
- fatty acid oxidation in words (Astrocyte; brain-derived astroglial cell cultures): no effect
- Stimulatory effect of 10 μM OEA (%) on [14C]oleate oxidation to CO2 (Cardiomyocyte; Cardiomyocyte, 10 μM, 30 min incubation): 37 ± 9%
- fatty acid oxidation in words (Cardiomyocyte; primary cultures of heart cells): significantly stimulates
- half-maximally effective dose for hypophagia [5]: 5 mg per kg
- suppression of food intake (hypophagia) ([5]; 24-h food-deprived rats, 15 min before food presentation, FIG. 4a,b): dose- and time-dependent suppression
- Stimulatory effect of 10 μM OEA (%) on [14C]oleate oxidation to CO2 (Soleus muscle; Soleus muscle, 10 μM, 30 min incubation): 36 ± 10%
- fatty acid oxidation in words (Soleus muscle; primary cultures of skeletal muscle (soleus)): significantly stimulates
- cumulative food intake ([7]; FIG. 5a): small, but significant decrease
- weight gain ([7]; FIG. 5b,c): profound inhibition
- water intake ([7]; FIG. 5d): did not affect
- c-fos expression in other brain regions (c-fos mRNA): not significantly affected
- c-fos mRNA levels in the PVN, supraoptic nucleus and NST (c-fos mRNA): highly localized increase
